Data reported in patent US20070167492A1, “Molluscicidal agents” (priority 2003, published 2007).
Entries after “also recorded” stand apart in the source; their conditions may differ.

How the values were obtained:
Assay type in all cases: in vivo
[1] = system: Grey field slug (Deroceras reticulatum); assay: Example 3:  trial oilseed rape, treated seed, 5 slugs per plot; details: doses of 10.4 and 20.8 ml per kg seed
Description: The compounds and doses used are described in table 12.
Trial Data Cultivaton • Location: Glasshouse • Plots consist of: One earthenware pot, diameter 20 cm, height 18 cm • Trial medium: 7 cm of peat based potting compost, covered with silversand • Cultivar: Talent (00) • Thousand seed weight: 7.0 g • Seed treatments: Carried out on 12 Mar. 2004. The fungicide treatment was 4 g a.i. TMTD per kg seed • Sowing date: 9 Apr. 2004 • Number of seeds per pot: 40 • Experimental layout: Randomised block design • Number of replicates: 4 (I to IV), Annex 1 • Temperature during cultivation: 16 hours 20° C., 8 hours 15° C. Trial • Location: Laboratory • Starting date: 20 Apr. 2004 • Slug species: Grey field slug (Deroceras reticulatum). The slugs were collected from the field and only healthy individuals were used. • Number of slugs per plot: 5 • Temperature during trial: ±18° C. • Relative humidity during trial: ±90% Assessment
After starting the trial, assessments were made on 21, 23 and 26 April. At each assessment, the total numbers of plants, the numbers of attacked plants, the numbers of dead slugs and the numbers of fecal pellets were counted. […] In addition, the numbers of normal plants were counted on 23 and 26 April and the fresh aboveground plant weight per plot was assessed on 27 April. […]
Data were analysed using analysis of variance and Student's t-distribution with the PPAIR procedure.

[2] = system: Deroceras reticulatum (grey field slug); assay: Example 1: pot test, treated winter wheat seed with 5 adult slugs per pot, 14 days
In short: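 Fludioxonil-disinfected winter wheat seed (Kampa, 40 per pot) sown on quartz sand over potting soil with 5 adult slugs per pot; ±15° C., ±90% RH, 12 h light/12 h dark, 4 replicates. Damaged seeds, plants, dead slugs and fecal pellets counted up to day 14; F-tests and Student-tests.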

[3] = system: Deroceras reticulatum (grey field slug); assay: Example 2: pot re-test, treated winter wheat seed with 5 adult slugs per pot, 7 days
Description: Based on the results of the experiment described in Example 1, a selection was made from the various test numbers of that experiment for re-testing, partly to confirm the conclusions of that experiment and to test the unexpected outcome of some test compounds.
The selection of test numbers (Test No.) used in the present experiment relative to those of the experiment described in Example 1 is shown in Table 7.
The same seeds as described in Example 1 were sown in earthenware pots with an internal diameter of 20 cm and a height of 18 cm, filled with 7 cm of potting soil (Trio BV, Weesp, The Netherlands) and with a top 2 cm of white quartz sand. A total of 40 winter wheat seeds was placed in each pot, in a pattern of concentric circles on top of the quartz sand, the germ of the seed facing upwards. To each pot a total of 5 adult specimens of the test slug Deroceras reticulatum (grey field slug) were added. The pots were incubated at 18-19° C. with a relative humidity of ±95% and light regime of ±18 hours light/6 hours dark, without artificial lighting. The pots were not irrigated overhead. In total, 4 parallel tests were performed for each test.
The number of damaged seeds was, the number of plants present (germinated and not eaten or damaged by the slugs), the number of dead slugs and of the number of fecal pellets were determined after 2, 3 and 7 days following the addition of the slugs.
The data were statistically analysed by using F-tests (α=0.05) and pair-wise Student-tests.

[4] = system: Winter wheat (Kampa race) seeds; assay: Seed germination test of treated winter wheat seeds (rolled in paper); details: 3x50 seeds, 6 days at 22° C.
In short: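 Seeds were disinfected with fludioxonil-containing Beret Gold (2 ml per kg seed) and coated with Sepiret® for formulations unsuitable for coating. Germination of 3×50 seeds rolled in paper was scored after 6 days at continuous 22° C. under a 16 hours light regime.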

[5] = 2 ml formulated per kg seed, 2 days after sowing
[6] = 2 ml formulated per kg seed, 3 days after sowing
[7] = 2 ml formulated per kg seed, 7 days after sowing
[8] = 2 ml formulated per kg seed, 10 days after sowing
[9] = 2 ml formulated per kg seed, 14 days after sowing
[10] = 10 ml formulated per kg seed, 2 days after sowing
[11] = 10 ml formulated per kg seed, 3 days after sowing
[12] = 10 ml formulated per kg seed, 7 days after sowing
[13] = 10 ml formulated per kg seed, 10 days after sowing
[14] = 10 ml formulated per kg seed, 14 days after sowing
[15] = Example 2, 2 ml formulated per kg seed, 2 days after sowing
[16] = Example 2, 2 ml formulated per kg seed, 3 days after sowing
[17] = Example 2, 2 ml formulated per kg seed, 7 days after sowing
[18] = Example 2, after 2, 3 and 7 days

With `N#CN=C1SCCN1Cc1ccc(Cl)nc1` [thiacloprid, N-[3-(6-chloropyridin-3-ylmethyl)thiazolidin-2-ylidene]cyanamide] the “damage (conclusion)” value [1] was “decreases the damage”, the “number of utilizable plants after 14 days” value ([2]; 2 ml formulated per kg seed) was 28.8 and the “percentage of damaged seeds after 14 days” value ([2]; 2 ml formulated per kg seed) was 13%. The “Mean number of damaged seeds per pot” value [2, 5] was 1.3, the “Mean number of dead slugs per pot” value [2, 5] was 0 and the “Mean number fecal pellets per pot” value [2, 6] was 14. The “Mean number of damaged seeds per pot” value [2, 6] was 3.3, the “Mean number of dead slugs per pot” value [2, 6] was 0.3 and the “Mean number of plants present per pot” value [2, 6] was 6.3. The “Mean number fecal pellets per pot” value [2, 7] was 23, the “Mean number of damaged seeds per pot” value [2, 7] was 7.5 and the “Mean number of dead slugs per pot” value [2, 7] was 0.5. The “Mean number of plants present per pot” value [2, 7] was 27.8, the “Mean number fecal pellets per pot” value [2, 8] was 17 and the “Mean number of damaged seeds per pot” value [2, 8] was 5.5. The “Mean number of dead slugs per pot” value [2, 8] was 0.5, the “Mean number of plants present per pot” value [2, 8] was 28.5 and the “Mean number fecal pellets per pot” value [2, 9] was 21. The “Mean number of damaged seeds per pot” value [2, 9] was 5.3, the “Mean number of dead slugs per pot” value [2, 9] was 0.8 and the “Mean number of plants present per pot” value [2, 9] was 29.3. The “number of utilizable plants after 14 days” value ([2]; 10 ml formulated per kg seed) was 34.5, the “percentage of damaged seeds after 14 days” value ([2]; 10 ml formulated per kg seed) was 8% and the “Mean number of damaged seeds per pot” value [2, 10] was 0.5. For the same compound, the “Mean number of dead slugs per pot” value [2, 10] was 0, the “Mean number fecal pellets per pot” value [2, 11] was 5 and the “Mean number of damaged seeds per pot” value [2, 11] was 1.5. The “Mean number of dead slugs per pot” value [2, 11] was 0, the “Mean number of plants present per pot” value [2, 11] was 10.5 and the “Mean number fecal pellets per pot” value [2, 12] was 8. For the same compound, the “Mean number of damaged seeds per pot” value [2, 12] was 3.3, the “Mean number of dead slugs per pot” value [2, 12] was 0 and the “Mean number of plants present per pot” value [2, 12] was 32.8. The “Mean number fecal pellets per pot” value [2, 13] was 7, the “Mean number of damaged seeds per pot” value [2, 13] was 3.3 and the “Mean number of dead slugs per pot” value [2, 13] was 0.3. The “Mean number of plants present per pot” value [2, 13] was 34.0, the “Mean number fecal pellets per pot” value [2, 14] was 9 and the “Mean number of damaged seeds per pot” value [2, 14] was 3.3. For the same compound, the “Mean number of dead slugs per pot” value [2, 14] was 0.3, the “Mean number of plants present per pot” value [2, 14] was 34.8 and the “damaged seeds relative to untreated control seed” value ([2]; Example 1, 2 or 10 ml per kg of seed, at each observation (after 2 days only 10 ml)) was “less damaged seeds than the untreated control seed”. The “protection of the wheat against slugs (conclusion)” value ([2]; Example 1, already at a low dose of 2 ml) was “good protection of the wheat against slugs”, the “fecal pellets relative to the untreated seed” value ([2]; Example 1, at each dosage and at each observation) was “large and significant reduction in the number of fecal pellets; also recorded: significantly less fecal pellets” and the “plants present and utilizable plants relative to the untreated seed” value ([2]; Example 1, both 2 and 10 ml per kg of seed, after 7 days) was “significantly more plants present and utilizable plants”. The “comparison with imidacloprid (fecal pellets, damaged seeds, plants present, utilizable plants)” value ([2]; Example 1, two weeks after the start) was “scored surprisingly better than the related compound imidacloprid”, the “result of seed treatment against slugs (conclusion)” value ([3]; Example 2) was “good results” and the “percentage of damaged seeds after 7 days” value ([3]; Example 2, 2 ml formulated per kg seed) was 14%. For the same compound, the “Mean number of damaged seeds per pot” value [3, 15] was 3.5, the “Mean number of dead slugs per pot” value [3, 15] was 0 and the “Mean number of damaged seeds per pot” value [3, 16] was 4.5. The “Mean number of dead slugs per pot” value [3, 16] was 0, the “Mean number of damaged seeds per pot” value [3, 17] was 5.8 and the “Mean number of dead slugs per pot” value [3, 17] was 0.3. The “number of fecal pellets per pot relative to the untreated control” value [3, 18] was “significant reduction in the number of fecal pellets”, the “plants present relative to the untreated seed” value [3, 18] was “significantly more plants present” and the “number of damaged seeds relative to the untreated seed” value ([3]; Example 2, two days after the start) was “significant reduction in the number of damaged seeds”. The “Mean number of fecal pellets per pot” value ([3]; dosage 2 ml, 2 days) was 8, the “Mean number of plants present per pot” value ([3]; dosage 2 ml, 2 days) was 12.5 and the “Mean number of fecal pellets per pot” value ([3]; dosage 2 ml, 3 days) was 14. The “Mean number of plants present per pot” value ([3]; dosage 2 ml, 3 days) was 24.0, the “Mean number of fecal pellets per pot” value ([3]; dosage 2 ml, 7 days) was 17 and the “Mean number of plants present per pot” value ([3]; dosage 2 ml, 7 days) was 29.5. The “number of utilizable plants after 7 days” value ([3]; dosage 2 ml, 7 days) was 23.5, the Percentage germinated ([4]; 2 ml formulated per kg seed) was 73% and the Percentage germinated ([4]; 10 ml formulated per kg seed) was 58%.
